Read-outs that look alike come from different tables or passages of the source.

Holding throughout (type): in vivo
One data set concerns CD1 or C57BL/6 mice. As to the kind of experiment: Cold stimulation tail flick somatic pain assay. Particulars: for ED50: Mus musculus, equimolar dosing; for Analgesia in cold tail-flick assay: high dose (100 mg/kg), all experimental cohorts. The source says:
(§1) The investigators were blinded till the completion of all the experiments. To ensure objectivity, investigators were blinded for the acetic acid and tail flick experiments. In the CFA/von Frey and Hargreaves assays, one investigator did the drug pre-treatments, and another investigator at another location who was not aware of the treatments conducted the behavioral testing. Moreover, these studies used the eVF device that electronically registers the grams of force necessary to elicit paw withdrawal, eliminating bias that confounded older versions of this test in which an investigator used a series of individual von Frey microfilaments to determine paw withdrawal thresholds. Six separate experimenters were involved in the data acquisition for behavioral testing, and another separate investigator performed all the statistical analyses using GraphPad Prism Version 9.1.2. Statistical significance was determined by p < 0.05; one-way ANOVA followed by Sidak’s multiple comparisons post hoc test. Mixed-gender experiments were powered to test for gender effects, and different ages of rodents were also included for the experiments – young (2 months) and aged (20 months) to tease out whether there are any effects of age-related changes in nociceptive sensitivity under naïve, and inflammatory pre-clinical rodent pain models. For the aged rats and mice, we could only obtain male Sprague–Dawley rats and male C57BL/6 mice of 20 months old from all commercial animal vendors and from the National Institute of Aging (NIA). So, only these rodents were used for the older animal experimental cohort. Old female rats and mice were not available at the time when these experiments were conducted. For ED50 calculation, dose–response curves were calculated with regression analysis and log transformation using GraphPad Prism 9.1.2.
Half of the tail was immersed in ice-cold water maintained at 4 °C. For the tail-flick assays, we used n = 70 aged male mice, n = 90 young male mice, and n = 120 young female mice. Based on the availability of mice at the time of the experiments, different numbers of animals were assigned to different cohorts of experimental animals. Tail flick assay experiments were conducted on an open bench in a dedicated room at the LSUHSC New Orleans Neuroscience Center of Excellence vivarium. Mice were allowed to acclimate to the laboratory environment for 1 h prior to testing. To restrain the mice for the test, disposable plastic 50 mL screw-capped conical centrifuge tubes were cut at the tip to create a 0.5 cm opening to allow the mice to breathe freely. Another 0.5 cm opening was cut into the cap to allow access of the tail to the water bath. A 500 mL glass beaker was filled with 450 mL of ice-cold distilled water maintained at 4 °C with the addition of ice and determined with a glass thermometer. Mice were held over the opening of the water bath, and their tails submerged approximately halfway into the water. The nociceptive threshold was taken as the latency until the mice flicked their tail tip or removed the tail. The time from immersion to the attempted tail tip removal was measured to 1/10th of a sec with a digital laboratory timer. To minimize damage to the tail, a 60-s cut-off was utilized. […] Injections were at doses of 32 mg/kg and 100 mg/kg. 30 min post-drug administration tail-flick/withdrawal latency was measured.

The test system of the next data set is Sprague–Dawley rats. As to the kind of experiment: CFA inflammatory pain / von Frey with electronic detection (eVF). To be noted: for Threshold for paw withdrawal, CFA-injected paw: young male rats, 18 g after CFA; for ED50: Rattus norvegicus, equimolar dosing; for Threshold for paw withdrawal, CFA-injected left hind paw: young female and aged male rats (Supplementary Fig. 3), from 25 g.
Description: as §1
In this model of mechanonociception, one hind paw at a time is stimulated with an electronic von Frey (eVF) filament (noxious source) until the animal retracts the paw from the mechanical stimulus. von Frey tests were conducted in a dedicated room at the LSUHSC New Orleans Neuroscience Center of Excellence vivarium. Rats were acclimated to their environment for 2 days for 30 min/day prior to testing. To obtain eVF pressure recordings, each animal was placed in an individual plastic observation compartment on a perforated metallic grid platform, which provided access to the plantar surface of the hind paws. After acclimation to the environment for 30 min, mechanical hypersensitivity was assessed by stimulating the mid-plantar area of each hind paw with a rigid tip von Frey filament attached to the eVF meter (Ugo Basile 38,450) until animals withdrew the paw from the filament. The withdrawal threshold was defined as the average force/pressure (g) required for the rat to withdraw the stimulated paw. A brisk withdrawal of the paw (often followed by a sustained retraction and/or licking) was considered a positive response, but paw withdrawals due to locomotion or weight shifting were not counted. The von Frey studies were conducted with an eVF device that electronically registers the grams of force necessary to elicit paw withdrawal in order to eliminate bias that confounded previous older versions of this test. Baseline withdrawal thresholds of both the right and left paws were recorded, and animals were assigned to different treatment groups so that each group had approximately equal withdrawal threshold averages in both paws. After baseline testing, treated animals received subcutaneous plantar injection (150 μl) of 50% CFA diluted and freshly mixed in sterile (0.9%) saline into the left hind paw unilaterally, while control animals received a plantar injection (150 µl) of 0.9% NaCl into their left hind paw. CFA induces inflammation, resulting in a left hind paw that is hypersensitive to mechanical stimulus, while the right hind paw serves as a within-subject baseline for each animal. […]

The next data set deals with liver of CD1 mice. Put plainly: Hepatotoxicity at 600 mg/kg: nitrotyrosine, ZO-1 tight junctions, TUNEL, liver function tests. Particulars: 15 out of 20 ApAP treated animals; data not shown.
The next data set has as its system male CD1 mice. As to the kind of experiment: Baker yeast-induced hyperthermia antipyresis assay. Particulars: 75 mg/kg per os, n = 10. The method, then:
Antipyresis experiments were carried out with n = 60 CD-1 male mice weighing between 45 and 50 g. All mice were kept in a 12-h day/12-h night cycle with free access to food and water ad libitum. After habituating and acclimating the mice for a week, each mouse was briefly anesthetized for 1 min with 1% isoflurane and implanted subcutaneously a transmitter probe that records core body temperature – Implantable Programmable Temperature Transponder (IPTT-300) by Bio Medic Data Systems (BMDS), DE, USA. The mice were allowed to recover for at least one week from the surgery before any recordings were made and observed in their home cages prior to pyrogen challenge for inducing fever. Temperatures were recorded using the BMDS DAS-8027-IUS data reading system.
15% yeast, 0.1 mL/kg (MilliporeSigma, Billerica, MA, USA) was used to induce fever. All animals used in this assay were male CD1 mice, which were fasted overnight (15 h) before the start of the assay.
Mice received either yeast in 0.9% saline (sterile) (vehicle) or just 0.9% saline as an ip injection. […] All mice that didn’t show a significant change in body temperature or appeared sick post-pyrogen challenge were excluded (n = 5) from subsequent drug administrations.
All drugs and vehicle (10% DMSO: 10% labrasol :80% PEG400) were administered by oral gavage, PO administration. Each dosing volume was ~ 0.3–0.4 mL per mouse. […]

Setting [1] is: read-out: ED50 Tail Flick Assay (Mice), Aged (Male).
Setting [2] is: read-out: ED50 Tail Flick Assay (Mice), Young (Female).
Setting [3] is: read-out: ED50 Tail Flick Assay (Mice), Young (Male).
Setting [4] is: 100 mg/kg PO (cumulative dosing).
Setting [5] is: read-out: ED50 von-Frey Assay (Rats), Aged (Male).
The mark [6] stands for this setting: read-out: ED50 von-Frey Assay (Rats), Young (Female).
Where [7] appears, read: read-out: ED50 von-Frey Assay (Rats), Young (Male).

Description for liver of CD1 mice: Male CD1 mice were fasted overnight for 15 h and dosed with ApAP or SRP-001 or vehicle (0.9% saline) at doses of 600 mg/kg administered via per os (PO) injections with an administration volume of 10 mL/kg body weight. After drug administration, animals were returned to their respective cages and maintained with food and water provided ad libitum for the next 12 h. Animals were then euthanized under 5% isoflurane anesthesia after 12 h, and whole blood samples were collected transcardially in sterile microcentrifuge tubes without anti-coagulants. […]
At 12 h post-injection, mice were deeply anesthetized under 5% isoflurane for more than 5 min and formalin-fixed via transcardial perfusion with 10% Neutral Buffered Formalin (NBF) after exsanguination using 0.9% NaCl. […] Nitrotyrosine labeling was detected with 3′3’-Diaminobenzidine (DAB) staining, and nitrotyrosine labeled hepatic sections were imaged at 100 × magnification in brightfield using a Nikon Eclipse TS100 microscope with NIS-Elements BR 3.0 software (NIKON Inc, Melville, NY, USA). […] Quantification of ZO-1 staining hepatic tight junctions was carried out by unbiassed image analysis calculating area sum of pixel[2] of the green channel staining ZO-1using CellSens software (Olympus Corp Center Valley, PA, USA).

One may read the ED50 as the dose that gives a 50% effect, or the effect in half of the subjects. On to `CC(=O)Nc1ccc(O)cc1` [ApAP, acetaminophen, reference compound], for which the 50% effective dose (ED50) in the data set with CD1 or C57BL/6 mice (setting [1]) was 281 µmol/kg; with CD1 or C57BL/6 mice (setting [2]), 70.3 µmol/kg; with CD1 or C57BL/6 mice (setting [3]), 71.8 µmol/kg; in the data set on Sprague–Dawley rats (setting [5]), 358 µmol/kg; with Sprague–Dawley rats (setting [6]), 292 µmol/kg; in the data set on Sprague–Dawley rats (setting [7]) it was 574 µmol/kg. The “Analgesia in cold tail-flick assay” value in the data set on CD1 or C57BL/6 mice is listed as “significant analgesia”. Moreover, the figures for the “Threshold for paw withdrawal, CFA-injected paw” value in the data set on Sprague–Dawley rats (32 mg/kg PO) and with Sprague–Dawley rats (setting [4]) were 34 g and 50 g, respectively. Also, in the data set with liver of CD1 mice, the “Animals dead in 48 h” value stood at 75%. Besides, the “Antipyresis, yeast fever (core body temperature)” value in the data set on male CD1 mice is “subsequent reduction in core body temperature”.

For the compound `CCN(CC)C(=O)c1ccccc1S(=O)(=O)NCC(=O)Nc1ccc(O)cc1` [SRP-001, N,N-diethyl-2-[[2-(4-hydroxyanilino)-2-oxo-ethyl]sulfamoyl]benzamide], the median effective dose (ED50) was 81.6 µmol/kg in the data set with CD1 or C57BL/6 mice (setting [1]); 44.9 µmol/kg with CD1 or C57BL/6 mice (setting [2]); 60 µmol/kg with CD1 or C57BL/6 mice (setting [3]); 454 µmol/kg with Sprague–Dawley rats (setting [5]); 121 µmol/kg in the data set on Sprague–Dawley rats (setting [6]); 190 µmol/kg with Sprague–Dawley rats (setting [7]). The “Analgesia in cold tail-flick assay” value in the data set with CD1 or C57BL/6 mice is “significant analgesia”. In addition, the “Threshold for paw withdrawal, CFA-injected paw” value turned out to be 40 g in the data set on Sprague–Dawley rats (32 mg/kg PO) and 55 g in the data set on Sprague–Dawley rats (setting [4]). In addition, the results for the “Threshold for paw withdrawal, CFA-injected left hind paw” value in the data set with Sprague–Dawley rats (32 mg/kg) and in the data set with Sprague–Dawley rats (100 mg/kg) were 32 g and 40 g, respectively. For the same compound, the “Animals dead in 48 h” value in the data set with liver of CD1 mice is listed as “none”. Also, the “Antipyresis, yeast fever (core body temperature)” value in the data set on male CD1 mice was “subsequent reduction in core body temperature”.

These data come from paper PMC11096368, “Transcriptomic signature, bioactivity and safety of a non-hepatotoxic analgesic generating AM404 in the midbrain PAG region” (Scientific Reports, 2024).
